Data on 36 compounds can be found in patent EP4095134A1, “POLYCYCLIC COMPOUNDS FOR THE TREATMENT OF NEUROLOGICAL INDICATIONS” (UCL Business Ltd, priority 2021, dated 2022).

T1 sequence (P47900 whole entry): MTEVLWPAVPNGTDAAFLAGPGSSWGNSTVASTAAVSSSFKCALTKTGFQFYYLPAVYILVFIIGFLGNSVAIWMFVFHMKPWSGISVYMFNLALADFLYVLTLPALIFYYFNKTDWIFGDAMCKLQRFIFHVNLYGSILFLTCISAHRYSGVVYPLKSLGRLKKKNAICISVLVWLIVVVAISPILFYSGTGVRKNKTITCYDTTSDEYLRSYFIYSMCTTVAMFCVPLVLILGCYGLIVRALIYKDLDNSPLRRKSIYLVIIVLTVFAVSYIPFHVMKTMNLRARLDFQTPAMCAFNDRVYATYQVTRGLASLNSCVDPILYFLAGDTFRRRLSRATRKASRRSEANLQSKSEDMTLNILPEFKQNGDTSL

One experiment has as its target T1, P2Y1 receptor (Homo sapiens, UniProt P47900).
T1 construct: expressed in transfected cells
Nature of the experiment: P2Y1 IP1 accumulation HTRF assay, antagonism of agonist MRS2365 in stably transfected cells. It counts as cell-based. As to conditions: at maximum tested concentration of 10000 nM; full dose-response curve not generated. Here is the method:
IC50 values were determined using a cell based assay in stably transfected cells overexpressing the P2Y1 receptor. The assay system is a […] (HTRF) assay measuring accumulation of the intracellular messenger inositol monophosphate (IP1), generated intracellularly following activation of P2Y1. Activity of test compounds was generated by measuring antagonism of the increase in IP1 generated by addition of a selective P2Y1 agonist, MRS2365.
P2Y1 overexpressing cells were maintained in T175 flasks. The day before the assay, these cells were split and 20µl cell suspension transferred to each well of white 384-well assay plates at a cell density of 0.5x10^6 cells/mL. Plates were pulse centrifuged, then incubated overnight at 37°C / 5% CO2 prior to assay.
On day of assay, medium was removed from cells and replaced with stimulation buffer. Compounds were prepared in 100% DMSO for addition to cells using the Tecan D300e digital dispenser; compounds were prepared in cassette heads and added directly to wells in the required concentration range, to give a 10-point concentration response curve from 10µM with semi-log dilutions and a final DMSO concentration of 0.1%. Positive control antagonist curves with standard compounds were included on each plate. Plates were incubated with antagonists for 1 hour prior to addition of 5nM of the agonist MRS2365, dispensed using a Bravo liquid handler. Following agonist addition, plates were incubated for 60 minutes prior to assay. Both incubations were carried out at 37°C / 5% CO2.
For the assay, IP1 accumulation was quantified using the IPOne kit according to manufacturer's instructions. In short, a standard curve was prepared for IP 1 quantification, and cells lysed using kit lysis buffer. Assay reagents were added to the lysates, and incubated for 1 hour at room temperature without spinning or shaking. Plates were analysed on a BMG Pherastar plate reader, and IP1 signal generated in cells interpolated from the standard curve.
For all reported results, N is greater than or equal to 4. An individual N refers to one assay run with a single weighing of compound. A minimum of two assay runs were performed for each of two independent weighings of compound. Results (racemic)
On the technique in general: TR-FRET usually uses a lanthanide donor and a delayed reading to cut background.
The term inhibition denotes the percentage by which the read-out fell short of the control. Low values mean a response near the control, high ones a response far below the control. With `COc1ccc2nc(Nc3cccnc3Oc3ccc(F)cc3C3(C(F)(F)F)CCO3)[nH]c2n1` (racemic) [S96], the inhibition at 10 µM is 56%.

The experiment is the same for the next values; noted with them: racemic; 5nM MRS2365; values rounded to nearest whole number; N >= 4.
What is called IC50 is the midpoint of a concentration-inhibition curve. Read a low IC50 as greater potency. Turning to `O=C(Nc1ccc(OC(F)(F)F)cc1)Nc1cccnc1Oc1cccc(C2(C(F)(F)F)CCO2)c1` (racemic) [S90, 1-(4-(trifluoromethoxy)phenyl)-3-(2-(3-(2-(trifluoromethyl)oxetan-2-yl)phenoxy)pyridin-3-yl)urea], the half-maximal inhibitory concentration (IC50) was 322 nM.

For the compound `O=C(Nc1ccc(OC(F)(F)F)cc1)Nc1cccnc1Oc1ccc(F)cc1C1(C(F)(F)F)CCO1` (racemic) [S33], the IC50 was 179 nM. Consider `O=C(Nc1ccc2c(c1)OCO2)Nc1cccnc1Oc1ccccc1C1(C(F)(F)F)CCO1` (racemic) [S70, 1-(benzo[d][1,3]dioxol-5-yl)-3-(2-(2-(2-(trifluoromethyl)oxetan-2-yl)phenoxy)pyridin-3-yl)urea], for which the IC50 came out at 1450 nM.

`Cc1cccc(Oc2ncccc2NC(=O)Nc2ccc(OC(F)(F)F)cc2)c1C1COC1` (racemic) [S88] showed a 50% inhibitory concentration (IC50) of 1160 nM. `O=C(Nc1ccc(Cl)cc1)Nc1cccnc1Oc1ccccc1C1(C(F)(F)F)CCO1` (racemic) [S27, 1-(4-chlorophenyl)-3-(2-(2-(2-(trifluoromethyl)oxetan-2-yl)phenoxy)pyridin-3-yl)urea]: the IC50 amounted to 153 nM. Consider `Cc1ccc(NC(=O)Nc2ccc(Cl)c(F)c2)c(Oc2ccccc2C2(C(F)(F)F)CCO2)n1` (racemic) [S17, 1-(4-chloro-3-fluorophenyl)-3-(6-methyl-2-(2-(2-(trifluoromethyl)oxetan-2-yl)phenoxy)pyridin-3-yl)urea], for which the IC50 amounted to 114 nM. In the case of `Cc1ncc(NC(=O)Nc2ccc(OC3CC(F)(F)C3)cc2)c(Oc2ccccc2C2(C(F)(F)F)CCO2)n1` (racemic) [S81, 1-(4-(3,3-difluorocyclobutoxy)phenyl)-3-(2-methyl-4-(2-(2-(trifluoromethyl)oxetan-2-yl)phenoxy)pyrimidin-5-yl)urea], the concentration for half-maximal inhibition (IC50) was determined as 3530 nM.

Compound `O=C(Nc1ccc(OC(F)(F)F)cc1)Nc1cccnc1Oc1ccccc1C1COC1` (racemic) [S87] yielded an IC50 of 4590 nM. `Cc1ncc(NC(=O)Nc2ccc(Cl)c(F)c2)c(Oc2ccccc2C2(C(F)(F)F)CCO2)n1` (racemic) [S64, 1-(4-chloro-3-fluorophenyl)-3-(2-methyl-4-(2-(2-(trifluoromethyl)oxetan-2-yl)phenoxy)pyrimidin-5-yl)urea] yielded an IC50 of 926 nM. Still for that read-out and setting: for `COc1ccc2nc(Nc3cccnc3Oc3ccc(F)cc3C3(C(F)(F)F)CCO3)[nH]c2n1` (racemic) [S119] the value was 721 nM; for `Cc1ccc(Nc2nnc(C(F)F)s2)c(Oc2ccc(F)cc2C2(C(F)(F)F)CCO2)n1` (racemic) [S76], 3050 nM. For the compound `COc1cc(NC(=O)Nc2ccc(C)nc2Oc2ccc(F)cc2C2(C(F)(F)F)CCO2)ccn1` (racemic) [S77, 1-(2-(4-fluoro-2-(2-(trifluoromethyl)oxetan-2-yl)phenoxy)-6-methylpyridin-3-yl)-3-(2-methoxypyridin-4-yl)urea], the concentration for half-maximal inhibition (IC50) was determined as 3140 nM.

The compound `Cc1ccc(NC(=O)Nc2ccc(OC3CC(F)(F)C3)cc2)c(Oc2ccccc2C2(C(F)(F)F)CCO2)n1` (racemic) [S15, 1-(4-(3,3-difluorocyclobutoxy)phenyl)-3-(6-methyl-2-(2-(2-(trifluoromethyl)oxetan-2-yl)phenoxy)pyridin-3-yl)urea] had a half-maximal inhibitory concentration (IC50) of 105 nM. Still for that read-out and setting: for `Cc1ncc(NC(=O)Nc2ccc(OC(F)(F)F)cc2)c(Oc2ccccc2C2(C(F)(F)F)CCO2)n1` (racemic) [S59, 1-(2-methyl-4-(2-(2-(trifluoromethyl)oxetan-2-yl)phenoxy)pyrimidin-5-yl)-3-(4-(trifluoromethoxy)phenyl)urea] the value was 644 nM. On the same count and under the same terms, then `N#Cc1ccc(NC(=O)Nc2cccnc2Oc2ccccc2C2(C(F)(F)F)CCO2)c(F)c1` (racemic) [S72, 1-(4-cyano-2-fluorophenyl)-3-(2-(2-(2-(trifluoromethyl)oxetan-2-yl)phenoxy)pyridin-3-yl)urea], with 1490 nM; and `O=C(Nc1ccc(Cl)cn1)Nc1cccnc1Oc1ccccc1C1(C(F)(F)F)CCO1` (racemic) [S46, 1-(5-chloropyridin-2-yl)-3-(2-(2-(2-(trifluoromethyl)oxetan-2-yl)phenoxy)pyridin-3-yl)urea], with 384 nM. In turn, `O=C(Nc1ccc(OC(F)(F)F)cc1)Nc1cccnc1Oc1ccc(F)cc1C1(C(F)(F)F)CCO1` (racemic) [S26, 1-(2-(4-fluoro-2-(2-(trifluoromethyl)oxetan-2-yl)phenoxy)pyridin-3-yl)-3-(4-(trifluoromethoxy)phenyl)urea] returned a 50% inhibitory concentration (IC50) of 152 nM.

In the case of `Cn1c(C(F)(F)F)nc2ccc(NC(=O)Nc3cccnc3Oc3ccccc3C3(C(F)(F)F)CCO3)cc21` (racemic) [S78, 1-(1-methyl-2-(trifluoromethyl)-1H-benzo[d]imidazol-6-yl)-3-(2-(2-(2-(trifluoromethyl)oxetan-2-yl)phenoxy)pyridin-3-yl)urea], the IC50 turned out to be 3160 nM.

On to `Fc1ccc(Oc2ncccc2Nc2nc3ccc(C(F)(F)F)cc3[nH]2)c(C2(C(F)(F)F)CCO2)c1` (racemic) [S97], for which the IC50 came out at 1010 nM.

`Cc1ccc(NC(=O)Nc2ccc(OC(F)(F)F)cc2F)c(Oc2ccccc2C2(C(F)(F)F)CCN2C)n1` (racemic) [S3] had a half-inhibitory concentration (IC50) of 40 nM. Regarding `O=C(Nc1ccc(OC(F)(F)F)cc1)Nc1cccnc1Oc1cc(F)ccc1C1(C(F)(F)F)CCO1` (racemic) [S31], the half-maximal inhibitory concentration (IC50) came out at 168 nM. On the same count and under the same terms, for `O=C(Nc1cc2c(cc1F)OCO2)Nc1cccnc1Oc1ccccc1C1(C(F)(F)F)CCO1` (racemic) [S61, 1-(6-fluorobenzo[d][1,3]dioxol-5-yl)-3-(2-(2-(2-(trifluoromethyl)oxetan-2-yl)phenoxy)pyridin-3-yl)urea] the value was 768 nM; for `COc1ccc(NC(=O)Nc2cccnc2Oc2ccccc2C2(C(F)(F)F)CCO2)cc1F` (racemic) [S55, 1-(3-fluoro-4-methoxyphenyl)-3-(2-(2-(2-(trifluoromethyl)oxetan-2-yl)phenoxy)pyridin-3-yl)urea], 560 nM. The compound `O=C(Nc1ccc(C(F)(F)F)cn1)Nc1cccnc1Oc1ccccc1C1(C(F)(F)F)CCO1` (racemic) [S38, 1-(2-(2-(2-(trifluoromethyl)oxetan-2-yl)phenoxy)pyridin-3-yl)-3-(5-(trifluoromethyl)pyridin-2-yl)urea] gave an IC50 of 248 nM. `O=C(Nc1ccc(Cl)cc1F)Nc1cccnc1Oc1ccccc1C1(C(F)(F)F)CCO1` (racemic) [S29, 1-(4-chloro-2-fluorophenyl)-3-(2-(2-(2-(trifluoromethyl)oxetan-2-yl)phenoxy)pyridin-3-yl)urea] registered an IC50 of 165 nM. On the same count and under the same terms, for `N#Cc1ccc(NC(=O)Nc2cccnc2Oc2ccccc2C2(C(F)(F)F)CCO2)cc1` (racemic) [S79, 1-(4-cyanophenyl)-3-(2-(2-(2-(trifluoromethyl)oxetan-2-yl)phenoxy)pyridin-3-yl)urea] the value was 3170 nM; for `CN1CCC1(c1ccccc1Oc1ncccc1NC(=O)Nc1ccc(Cl)cc1F)C(F)(F)F` (racemic) [S10], 78 nM. With `O=C(Nc1ccc(S(F)(F)(F)(F)F)cc1F)Nc1cccnc1Oc1ccccc1C1(C(F)(F)F)CCO1` (racemic) [S13, 1-(2-fluoro-4-(pentafluoro-λ^6-sulfaneyl)phenyl)-3-(2-(2-(2-(trifluoromethyl)oxetan-2-yl)phenoxy)pyridin-3-yl)urea], the IC50 worked out at 93 nM.

`CN1C(=O)CC1(c1ccccc1Oc1ncccc1NC(=O)Nc1ccc(OC(F)(F)F)cc1)C(F)F` (racemic) [S83] came in with an IC50 of 4710 nM. Take `FC(F)(F)c1nnc(Nc2cccnc2Oc2ccccc2C2(C(F)(F)F)CCO2)s1` (racemic) [S73]: the IC50 was 1690 nM. Still for that read-out and setting: for `Cc1ccc(NC(=O)Nc2ccc(C#N)cc2F)c(Oc2ccc(F)cc2C2(C(F)(F)F)CCO2)n1` (racemic) [S56, 1-(4-cyano-2-fluorophenyl)-3-(2-(4-fluoro-2-(2-(trifluoromethyl)oxetan-2-yl)phenoxy)-6-methylpyridin-3-yl)urea] the value was 587 nM; for `O=C(Nc1ccc(F)cc1F)Nc1cccnc1Oc1ccccc1C1(C(F)(F)F)CCO1` (racemic) [S65, 1-(2,4-difluorophenyl)-3-(2-(2-(2-(trifluoromethyl)oxetan-2-yl)phenoxy)pyridin-3-yl)urea], 983 nM.

Still in this experiment, the particulars now being: single enantiomer; 5nM MRS2365; values rounded to nearest whole number.
In turn, `CC(C)c1ccc(NC(=O)Nc2cccnc2Oc2ccccc2[C@@]2(C(F)(F)F)CCO2)c(F)c1` [S124] registered an IC50 of 20 nM. In turn, `Cc1ccc(NC(=O)Nc2ccc(C(C)(C)C(F)(F)F)cc2)c(Oc2ccccc2[C@@]2(C(F)(F)F)CCO2)n1` (single isomer, unassigned) [S99] showed a concentration for half-maximal inhibition (IC50) of 29 nM. On the same count and under the same terms, for `Cc1ccc(NC(=O)Nc2ccc(C(C)C)cc2F)c(Oc2ccccc2[C@]2(C(F)(F)F)CCO2)n1` [S123] the value was 33 nM.
